Laboratory results: patent US8642629B2, “Naphthylacetic acids” (Hoffmann-La Roche Inc., priority 2008, dated 2014)

Molecular target: T1, human CRTH2 (Homo sapiens, UniProt Q9Y5Y4)
T1 construct: expressed in transfected cells; host or cells: CHO-K1
T1 sequence (Q9Y5Y4 1-395): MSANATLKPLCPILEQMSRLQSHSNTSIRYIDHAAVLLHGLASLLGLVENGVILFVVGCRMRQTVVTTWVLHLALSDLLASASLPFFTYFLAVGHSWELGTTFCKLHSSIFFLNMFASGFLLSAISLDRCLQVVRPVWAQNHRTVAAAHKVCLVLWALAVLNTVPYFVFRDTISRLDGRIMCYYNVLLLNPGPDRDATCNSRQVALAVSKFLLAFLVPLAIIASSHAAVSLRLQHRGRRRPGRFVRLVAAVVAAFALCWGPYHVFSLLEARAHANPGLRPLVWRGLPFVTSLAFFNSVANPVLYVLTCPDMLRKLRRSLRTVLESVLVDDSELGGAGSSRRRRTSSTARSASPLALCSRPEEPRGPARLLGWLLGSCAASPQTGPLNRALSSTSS
Assay: Human CRTH2 Receptor Binding Assay (whole cell, [3H]ramatroban competition)
Conditions: CHO-K1 cells expressing human CRTH2 and G-alpha16; 20 nM [3H]ramatroban; 1 hour, room temperature
Text: A whole cell receptor binding assay using [^3H]ramatroban as the competing radioactive ligand was employed to evaluate the compound binding activity to human CRTH2. The radioactive ligand [^3H]ramatroban was synthesized according to Sugimoto et. al. (Eur. J. Pharmacol. 524, 30-37, 2005) to a specific activity of 42 Ci/mmol.
A cell line stably expressing human CRTH2 was established by transfecting CHO-K1 cells with two mammalian expression vectors that harbored human CRTH2 and G-alpha16 cDNAs, respectively, using FuGene® 6 transfection reagent (from Roche). Stable clones expressing CRTH2 were selected by staining each clone with BM16 (BD Pharmingen™ from BD Biosciences, a division of Becton, Dickinson and Company), which is a rat monoclonal antibody to human CRTH2. The cells were maintained as monolayer cultures in Ham's F-12 medium containing 10% fetal bovine serum, 100 units/mL penicillin, 100 μg/mL streptomycin, 2 mM glutamine, 0.5 mg/mL G418 (geneticin) for CRTH2, and 0.2 mg/mL hygromycin-B (for G-alpha 16). For whole cell receptor binding assay, the monolayer cells were rinsed once with PBS (phosphate buffered saline), dissociated using ethylenediaminetetraacetate (Versene™ EDTA from Lonza Inc.), and suspended in PBS containing 10 mM MgCl2 and 0.06% BSA (bovine serum albumin) at 1.5×10^6 cells/mL.
The binding reactions (0.2 mL) were performed in 96-well plates at room temperature in PBS containing 1.5×10^5 cells, 10 mM MgCl2, 0.06% BSA, 20 nM [^3H]ramatroban, and test compound at various concentrations. After 1 hour of binding reactions, the cells were harvested on GF™/B filter microplates (microtiter plates with embedded glass fiber from PerkinElmer, Inc.) and washed 5 times with PBS using a Filtermate™ Harvester (a cell harvester that harvests and washes cells from microplates from PerkinElmer, Inc.). The radioactivities bound to the cells were determined using a microplate scintillation counter (TopCount® NXT, from PerkinElmer, Inc.) after adding 50 μL of Microscint™ 20 scintillation fluid (from PerkinElmer, Inc.) to each well of the filter plates. The radioactivity from non-specific binding was determined by replacing compound with 10 μM of 15(R)-15-methyl PGD2 (from Cayman Chemical Company) in the reaction mixtures. The radioactivity bound to the cells in the absence of compound (total binding) was determined by replacing compound with 0.25% of DMSO (dimethyl sulfoxide) in the reaction mixture. Specific binding data were obtained by subtracting the radioactivity of non-specific binding from each binding data.
The IC50 value is defined as the concentration of the tested compound that is required for 50% inhibition of total specific binding. In order to calculate the IC50 value, the percent inhibition data were determined for 7 concentrations for each compound. The percent inhibition for a compound at each concentration was calculated according to the following formula, [1−(specific binding in the presence of compound)/(total specific binding)]×100. The IC50 value was then obtained by fitting the percent inhibition data to a sigmoidal dose-response (4 parameter logistic) model in the XLfit® software Excel add-in program [from ID Business Solutions Ltd., model 205, where F(x)=(A+(B−A)/(1+((C/x)^D)))].

SMILES | IC50 [nM]
CCS(=O)(=O)c1ccc(Oc2cc(CC(=O)O)cc3cc(OC)c(OC)cc23)cc1 [Example 1-23, [4-(4-Ethanesulfonyl-phenoxy)-6,7-dimethoxy-naphthalen-2-yl]-acetic acid] | 97.3
Cc1c(CC(=O)O)cc2ccc(F)cc2c1Oc1ccc(S(C)(=O)=O)cc1 [Example 2-2, [6-fluoro-4-(4-methanesulfonyl-phenoxy)-3-methyl-naphthalen-2-yl]-acetic acid] | 2.3
Cc1c(CC(=O)O)cc2ccc(F)cc2c1Oc1ncc(S(C)(=O)=O)cc1Br [Example 2-36, [4-(3-bromo-5-methanesulfonyl-pyridin-2-yloxy)-6-fluoro-3-methyl-naphthalen-2-yl]-acetic acid] | 0.02
CCS(=O)(=O)c1cnc(Oc2cc(CC(=O)O)cc3ccc(F)cc23)c(Br)c1 [Example 1-13, [4-(3-bromo-5-ethanesulfonyl-pyridin-2-yloxy)-6-fluoro-naphthalen-2-yl]-acetic acid] | 2.3
CS(=O)(=O)c1ccc(Oc2cc(CC(=O)O)cc3ccc(F)cc23)nc1 [Example 1-9, [6-fluoro-4-(5-methanesulfonyl-pyridin-2-yloxy)-naphthalen-2-yl]-acetic acid] | 3.7
CCS(=O)(=O)c1ccc(Oc2c(C3CC3)c(CC(=O)O)cc3ccc(F)cc23)nc1 [Example 18-1, [3-Cyclopropyl-4-(5-ethanesulfonyl-pyridin-2-yloxy)-6-fluoro-naphthalen-2-yl]-acetic acid] | 6.7
CCS(=O)(=O)c1ccc(Oc2c(C)c(CC(=O)O)cc3ccc(F)cc23)nc1 [Example 2-33, [4-(5-ethanesulfonyl-pyridin-2-yloxy)-6-fluoro-3-methyl-naphthalen-2-yl]-acetic acid] | 2.7
CS(=O)(=O)c1ccc(Oc2cc(CC(=O)O)cc3ccc(Cl)cc23)cc1 [Example 1-3, [6-chloro-4-(4-methanesulfonyl-phenoxy)-naphthalen-2-yl]-acetic acid] | 8.5
CCc1c(CC(=O)O)cc2ccc(F)cc2c1Oc1ccc(S(=O)(=O)CC)cn1 [Example 19-1] | 17.5
CS(=O)(=O)c1ccc(Nc2cc(CC(=O)O)cc3ccc(F)cc23)cc1 [Example 8-1, [6-fluoro-4-(4-methanesulfonyl-phenylamino)-naphthalen-2-yl]-acetic acid] | 3.3
COc1ccc(S(=O)(=O)c2ccc(Oc3c(C)c(CC(=O)O)cc4ccc(F)cc34)cc2)cc1 [Example 2-30, {6-fluoro-4-[4-(4-methoxy-benzenesulfonyl)-phenoxy]-3-methyl-naphthalen-2-yl}-acetic acid] | 2.7
Cc1cc(Oc2c(C)c(CC(=O)O)cc3ccc(Cl)cc23)ccc1S(C)(=O)=O [Example 2-8, [6-chloro-4-(4-methanesulfonyl-3-methyl-phenoxy)-3-methyl-naphthalen-2-yl]-acetic acid] | 4.5
CCCCS(=O)(=O)c1ccc(Oc2c(C)c(CC(=O)O)cc3ccc(F)cc23)cc1 [Example 2-23, {4-[4-(butane-1-sulfonyl)-phenoxy]-6-fluoro-3-methyl-naphthalen-2-yl}-acetic acid] | 2.1
CCS(=O)(=O)c1ccc(Oc2cc(CC(=O)O)cc3ccc(F)cc23)nc1 [Example 1-11, [4-(5-ethanesulfonyl-pyridin-2-yloxy)-6-fluoro-naphthalen-2-yl]-acetic acid] | 5.6
Cc1c(CC(=O)O)cc2ccc(F)cc2c1Oc1ccc(S(=O)(=O)N(C)C)cc1 [Example 2-37, [4-(4-dimethylsulfamoyl-phenoxy)-6-fluoro-3-methyl-naphthalen-2-yl]-acetic acid] | 1.9
CC(C)S(=O)(=O)c1ccc(Oc2cc(CC(=O)O)cc3ccc(F)cc23)cc1 [Example 1-4, {6-fluoro-4-[4-(propane-2-sulfonyl)-phenoxy]-naphthalen-2-yl}-acetic acid] | 6.7
CS(=O)(=O)c1ccc([S+]([O-])c2cc(CC(=O)O)cc3ccc(F)cc23)cc1 (stereo not drawn) [Example 10-1, [6-fluoro-4-(4-methanesulfonyl-benzenesulfinyl)-naphthalen-2-yl]-acetic acid] | 10.3
CS(=O)(=O)c1ccc(Sc2cc(CC(=O)O)cc3ccc(F)cc23)cc1 [Example 9-1, [6-fluoro-4-(4-methanesulfonyl-phenylsulfanyl)-naphthalen-2-yl]-acetic acid] | 7.5
Cc1c(CC(=O)O)cc2ccc(F)cc2c1Oc1ccc(S(=O)(=O)N2CCOCC2)cc1 [Example 2-40, {6-fluoro-3-methyl-4-[4-(morpholine-4-sulfonyl)-phenoxy]-naphthalen-2-yl}-acetic acid] | 6.3
Cc1c(CC(=O)O)cc2ccc(F)cc2c1Nc1ccc(S(C)(=O)=O)cc1 [Example 8-2, [6-fluoro-4-(4-methanesulfonyl-phenylamino)-3-methyl-naphthalen-2-yl]-acetic acid] | 2.6
CCS(=O)(=O)c1ccc(Oc2c(C)c(CC(=O)O)cc3ccc(F)cc23)cc1C [Example 2-14, [4-(4-ethanesulfonyl-3-methyl-phenoxy)-6-fluoro-3-methyl-naphthalen-2-yl]-acetic acid] | 1.6
CCS(=O)(=O)c1ccc(Oc2c(C)c(CC(=O)O)cc3ccc(F)cc23)c(C)c1 [Example 2-10, [4-(4-ethanesulfonyl-2-methyl-phenoxy)-6-fluoro-3-methyl-naphthalen-2-yl]-acetic acid] | 7.3
CCS(=O)(=O)c1cnc(Oc2c(C)c(CC(=O)O)cc3ccc(F)cc23)c(C)c1 [Example 2-35, [4-(5-ethanesulfonyl-3-methyl-pyridin-2-yloxy)-6-fluoro-3-methyl-naphthalen-2-yl]-acetic acid] | 2.9
CCS(=O)(=O)c1ccc(Oc2cc(CC(=O)O)cc3ccc(OC(F)(F)F)cc23)nc1 [Example 1-18, [4-(5-Ethanesulfonyl-pyridin-2-yloxy)-6-trifluoromethoxy-naphthalen-2-yl]-acetic acid] | 2.6
Cc1cc(S(C)(=O)=O)ccc1Oc1cc(CC(=O)O)cc2ccc(F)cc12 [Example 1-6, [6-fluoro-4-(4-methanesulfonyl-2-methyl-phenoxy)-naphthalen-2-yl]-acetic acid] | 7.1
Cc1cc(S(C)(=O)=O)ccc1Oc1c(C)c(CC(=O)O)cc2ccc(Cl)cc12 [Example 2-9, [6-chloro-4-(4-methanesulfonyl-2-methyl-phenoxy)-3-methyl-naphthalen-2-yl]-acetic acid] | 2.7
Cc1cc(S(C)(=O)=O)cnc1Oc1c(C)c(CC(=O)O)cc2ccc(F)cc12 [Example 2-34, [6-fluoro-4-(5-methanesulfonyl-3-methyl-pyridin-2-yloxy)-3-methyl-naphthalen-2-yl]-acetic acid] | 3.1
CCS(=O)(=O)c1ccc(Oc2cc(CC(=O)O)cc3ccc(Br)cc23)cc1 [Example 15-1, [6-Bromo-4-(4-ethanesulfonyl-phenoxy)-naphthalen-2-yl]-acetic acid] | 5.4
Cc1c(CC(=O)O)cc2ccc(F)cc2c1Oc1ccc(S(C)(=O)=O)cn1 [Example 2-32, [6-fluoro-4-(5-methanesulfonyl-pyridin-2-yloxy)-3-methyl-naphthalen-2-yl]-acetic acid] | 0.9
CCS(=O)(=O)c1ccc(Oc2c(C)c(CC(=O)O)cc3ccc(F)cc23)c(C#N)c1 [Example 2-18, [4-(2-cyano-4-ethanesulfonyl-phenoxy)-6-fluoro-3-methyl-naphthalen-2-yl]-acetic acid] | 1.7
